The results in this text go back to patent publication US12173042B2, “Methods of treating cancers with CT45 targeted therapies” (The University of Chicago, priority 2016, dated 2024).

The subject of assay [1] is OVCAR5 CT45 expressing cells. Briefly: Proliferation with increasing concentrations of carboplatin. Type of assay: cell-based, human. Conditions: CT45 expressing cells treated with carboplatin. How it is done:
FIG. 8A-B. CT45 sensitizes cancer cells to carboplatin. a, Western blot of CT45 expression in ovarian cancer cell lines transduced with a CT45A5 lentivirus. b, Proliferation of OVCAR5 control (V5) or CT45 expressing cells with increasing concentrations of carboplatin.
FIG. 19A-F. CT45 sensitizes cancer cells to carboplatin. a, MTT of SKOV3ip1 cells with or without 500 nM DAC treated with increasing doses of carboplatin. Cells were pretreated with 500 nM DAC for 72 hr then cultured for 4 days and treated with carboplatin on day 7. The MTT was performed after 72 hr with carboplatin treatment. b, Western blot of CT45 expression in ovarian cancer cell lines transduced with a CT45A5 lentivirus. c, Proliferation of OVCAR5 control (V5) or CT45 expressing cells with increasing concentrations of carboplatin. d, Cell cycle analysis of OVCAR5 control (V5) or CT45 expressing cells stained with propidium iodide. e, Clonogenic survival assay of the ovarian cancer cell line OVKATE stably overexpressing CT45 or control. Dots represent mean values from three independent experiments. Error bars show s.e.m. for each group. f, Interaction proteomics screen in the ovarian cancer cell line COV318 stably over-expressing V5-tagged CT45. Protein enrichment (t-test difference) is calculated over the corresponding control cell line (V5 tag alone) and plotted against the t-test p-value (−log10). […]

The subject of assay [2] is OVCAR5 stably overexpressing CT45. Kind of assay: Clonogenic survival assay, OVCAR5. Conditions: CT45 expressing cells treated with carboplatin. Type of assay: cell-based, human. How it is done:
Cells were treated with different carboplatin concentrations for 48 hours and 7-9 days after treatment colonies were counted and plotted as a percent of control on a logarithmic scale.
Cells were treated with different carboplatin concentrations for 48-72 hours. 2000 cells per 6-well were then plated for 7-9 days in drug-free medium. Grown colonies were fixed and stained with 1% formaldehyde, 1% methanol and 0.05% Crystal Violet for 20 min. Colony numbers were then counted with the Colony Area ImageJ plugin and plotted as percent of control on a logarithmic scale.

The test system of assay [3] is OVCAR5-V5-CT45 tumors. Kind of assay: Subcutaneous tumor growth in nude mice, CT45 expressing tumors. Type of assay: in vivo, athymic nude mice. Conditions: carboplatin 20 mg/kg tail vein 1 time/week, vs untreated CT45 tumors. On the procedure:
(§1) 5 million OVCAR5-V5 or OVCAR5-V5-CT45 cells suspended in a 1:2 solution of serum-free media to growth-factor reduced matrigel were injected subcutaneously into the right and left flanks respectively, of 8 week old female athymic nude mice. After 5 days, treatment was administered through the tail vein 1 time/week at 20 mg/kg. Sterile water served as the control treatment. Tumor growth was measured every 2-3 days using calipers until the tumor neared 1 cm3 and was measured daily. Once the tumor reached 1 cm3 the mouse was sacrificed. 4 mice were removed from the study early due to ulcerations of the skin. All experiments were approved by the Institutional Animal Care and Use Committee of the University of Chicago.
as §1, with “Five million” for “5 million”, “8 weeks” for “8 week”, “1 cm^3” for “1 cm3”, “skin. […]” for “skin. All experiments were approved by the Institutional Animal Care and Use Committee of the University of Chicago.”

Assay [4] relates to KAP-1 Ser824 phosphorylation. Briefly: KAP-1 Ser824 phosphorylation (western blot, immunofluorescence). Type of assay: cell-based, human. Conditions: carboplatin 5 μM. How it is done: Cells were treated with indicated drugs for 3 days and then media was changed. On indicated day of collection, both adherent and non-adherent cells were collected in RIPA buffer (25 mM Tris-HCl pH 7.6, 150 mM NaCl, 1% NP-40, 0.5% sodium deoxycholate, 0.1% SDS) supplemented with protease inhibitor cocktail (Thermo Scientific) and phosphatase inhibitor cocktail (Sigma). Lysates were incubated for 30 min on ice, sonicated and cleared by centrifugation (15 min, 14 000 rpm, 4° C.). The quantity of protein was determined by BCA reagent (Pierce). The extracts were analyzed by SDS-PAGE on a 4-20% gradient gel (Bio-Rad).
Cells were treated with 0 or 5 μM carboplatin on glass chamber slides. After 72 hr, media was changed. At designated timepoints, slides were fixed for 10 min at room temperature with 4% paraformaldehyde, cells were washed and permeabilized with PBS/0.1% Triton-X for 15 min and then blocked for 1 hr in blocking buffer (PBS/0.1% Triton-X/0.05% BSA/0.05% goat serum). Cells were washed three times and then were then incubated with primary antibody overnight diluted in blocking buffer at 4° C. Following three washes, cells were incubated with secondary antibody (diluted in blocking buffer) for 1 hr at room temperature and then with Hoechst 33342 for 2 min. Slides were mounted with ProLong Gold Antifade. […] A minimum of 100 cells/sample were analyzed. […]
For orientation: Immunoblotting shows a protein as a band on a membrane.

Entries after “also recorded” stand apart in the source; their conditions may differ.

With `N.N.O=C([O-])C1(C(=O)[O-])CCC1.[Pt+2]` [carboplatin], the proliferation result in assay [1] is reported as “significantly reduced; also recorded: reduced proliferation”. For the same compound, the colony formation entry in assay [2] is on record as “significantly reduced”. In assay [3], the tumor growth result is given as “significantly reduced growth”. Moreover, the “time of peak of phosphorylated KAP-1” value in assay [4] (both cell lines) stood at 3 days. Moreover, in assay [4], the “phosphorylation of KAP-1 at Ser824” value is “induced phosphorylation”.
